How the values were obtained:
[1] = tested on: Yellow Fever Virus (YF-IRES-Luc); test: microbe, parasite or virus in culture; format: cell-based
[2] = tested on: uninfected BHK cells; format: cell-based, hamster
[3] = molecular target: fire-fly luciferase (Photinus pyralis, UniProt P08659, K549A/L550V/N119G/N50D/S548I); test: Direct luciferase inhibition assay; format: cell-based; details: cells transfected with luciferase-pcDNA3; data not shown
[4] = In vitro hydrolytic stability assay utilizing rat plasma

Sequence of fire-fly luciferase (P08659 whole entry N50D/N119G/S548I/K549A/L550V): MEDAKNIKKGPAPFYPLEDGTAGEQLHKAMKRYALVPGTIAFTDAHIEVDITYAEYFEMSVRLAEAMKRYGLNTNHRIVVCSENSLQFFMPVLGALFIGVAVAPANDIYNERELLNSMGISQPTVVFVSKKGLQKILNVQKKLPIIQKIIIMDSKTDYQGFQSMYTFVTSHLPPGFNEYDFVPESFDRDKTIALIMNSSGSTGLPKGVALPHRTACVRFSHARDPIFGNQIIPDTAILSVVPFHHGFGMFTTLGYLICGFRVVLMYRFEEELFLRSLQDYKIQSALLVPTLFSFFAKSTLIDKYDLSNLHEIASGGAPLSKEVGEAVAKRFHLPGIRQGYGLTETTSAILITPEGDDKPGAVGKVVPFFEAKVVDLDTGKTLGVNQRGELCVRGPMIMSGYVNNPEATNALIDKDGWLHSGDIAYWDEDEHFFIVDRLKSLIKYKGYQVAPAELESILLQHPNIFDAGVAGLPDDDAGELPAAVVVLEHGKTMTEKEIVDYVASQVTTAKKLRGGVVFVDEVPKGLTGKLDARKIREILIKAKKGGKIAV

CCCCc1ccc(-c2nc(C)c(C(=O)O)s2)cc1 [Compound 8, 2-(4-Butylphenyl)-4-methylthiazole-5-carboxylic Acid]
antiflaviviral activity (in words) [1]: inactive

COC(=O)c1sc(-c2cccc(Br)c2)nc1C(Br)Br [Compound 6c, Methyl 2-(3-Bromophenyl)-4-(dibromomethyl)thiazole-5-carboxylate]
antiflaviviral activity (in words) [1]: weak activity

COC(=O)c1sc(-c2ccc(C(C)(C)C)cc2)nc1C [Compound 5l]
antiflaviviral activity (in words) [1]: inactive

COC(=O)c1sc(Cc2ccccc2)nc1C [Compound 5o]
antiflaviviral activity (in words) [1]: inactive

COC(=O)c1sc(-c2ccc(Cl)c(Cl)c2)nc1C(Br)Br [Compound 6j, Methyl 4-(Dibromomethyl)-2-(3,4-dichlorophenyl)thiazole-5-carboxylate]
inhibition at 50 µM ([1]; Yellow fever virus, BHK, read-out: % Inhibition (reduction in luciferase activity)): < 50%

COC(=O)c1sc(-c2ccccc2)nc1C(Br)Br [Compound 6a, Methyl 4-(Dibromomethyl)-2-phenylthiazole-5-carboxylate]
antiflaviviral activity (in words) [1]: very weak antiflaviviral inhibitory activity

Methyl 4-Methyl-2-(naphthalen-2-yl)thiazole-5-carboxylate [Compound 5k]
GI50 [2]: 434 ± 23.3 µM
EC50 [1]: 35.7 ± 22.7 µM
% Inhibition (reduction in luciferase activity) ([1]; 50 µM): 78.4%

CCCCc1ccc(-c2nc(C)c(/C(C)=N/NC(=N)N)s2)cc1 [Compound 12, 2-(1-(2-(4-Butylphenyl)-4-methylthiazol-5-yl)ethylidene)hydrazinecarboximidamide]
reduction of luciferase activity [3]: No reduction of luciferase activity was observed
half-life, times higher than the lead compound 2 [4]: around 6 times

— paper PMC3119515 (Bioorganic & medicinal chemistry, 2011)
